In one series the test system is Human PBMCs. Put plainly: MTS staining for PBMC viability (cytotoxicity). The conditions noted are these: for Cytotoxicity: at the concentrations evaluated. It counts as cell-based. As for the experimental part:
PMBC assay. For the standard PBMC assay, PHA-P stimulated cells from at least two normal donors were pooled (mixed together), diluted in fresh medium to a final concentration of 1×10^6 cells/mL, and plated in the interior wells of a 96 well round bottom microplate at 50 μL/well (5×10^4 cells/well) in a standard format developed by the Infectious Disease Research department of Southern Research Institute. Pooling (mixing) of mononuclear cells from more than one donor is used to minimize the variability observed between individual donors, which results from quantitative and qualitative differences in HIV infection and overall response to the PHA and IL-2 of primary lymphocyte populations. Each plate contains virus/cell control wells (cells plus virus), experimental wells (drug plus cells plus virus) and compound control wells ([…], necessary for MTS monitoring of cytotoxicity). Since HIV-1 is not cytopathic to PBMCs, this allows the use of the same assay plate for both antiviral activity and cytotoxicity measurements. Test drug dilutions were prepared at a 2× concentration in microtiter tubes and 100 μL of each concentration was placed in appropriate wells using the standard format. 50 μL of a predetermined dilution of virus stock was placed in each test well (final MOI˜0.1). The PBMC cultures were maintained for seven days following infection at 37° C., 5% CO2. After this period, cell-free supernatant samples were collected for analysis of reverse transcriptase activity and/or HIV p24 content. Following removal of supernatant samples, compound cytotoxicity was measured by addition of MTS to the plates for determination of cell viability. Wells were also examined microscopically and any abnormalities were noted.
MTS staining for PBMC viability to measure cytotoxicity. At assay termination, assay plates were stained with the soluble tetrazolium-based dye MTS (CellTiter 96 Reagent, Promega) to determine cell viability and quantify compound toxicity. The mitochondrial enzymes of metabolically active cells metabolize MTS to yield a soluble formazan product. This allows the rapid quantitative analysis of cell viability and compound cytotoxicity. […] At termination of the assay, 20 μL of MTS reagent was added per well. The microtiter plates were then incubated 4 6 hrs at 37° C. The incubation intervals were chosen based on empirically determined times for optimal dye reduction. Adhesive plate sealers were used in place of the lids, the sealed plate was inverted several times to mix the soluble formazan product and the plate was read spectrophotometrically at 490/650 ηm with a Molecular Devices Vmax or SpectraMaxPlus plate reader.
Data analysis. Using an in-house computer program, IC50 (50%, inhibition of virus replication), IC90 (90%, inhibition of virus replication), IC95 (95%, inhibition of virus replication), TC50 (50% reduction in cell viability), TC90 (90% reduction in cell viability), TC95 (95% reduction in cell viability), and a therapeutic index (TI=TC50/IC50) were determined. AZT (nucleoside reverse transcriptase inhibitor) was used as a positive control antiviral compound.

For another series, the system named is HIV-1Ba-L. Nature of the series: PBMC antiviral assay, HIV-1Ba-L. Type of series: cell-based. The conditions noted are these: human PBMCs. The procedure: Compounds SA-101A and SA-101B were tested for antiviral activity against HIV-1 in peripheral blood mononuclear cells (PBMC) acutely infected with the HIV-1 isolates. PBMCs were derived from normal HIV-1 negative donors, and cultured under conditions which promote cell survival and HIV replication. Fresh human blood was obtained commercially from Biological Specialty Corporation (Colmar, Pa.). The low passage clinical isolates HIV-1Ba-L, HIVIIIB, and SIVmac251 were from the NIAID AIDS Research and Reference Reagent Program. Immediately before use, pre-titered aliquot of the viruses were removed from storage in a freezer (−80° C.) and thawed rapidly to room temperature in a biological safety cabinet. Phytohemagglutinin (PHA-P) was obtained from Sigma (St. Louis, Mo.) and recombinant IL-2 was obtained from R&D Systems Inc. (Minneapolis, Minn.). Antiviral activity was tested from a high-test concentration of 100 μM or 100 μg/ml with nine ½-log serial dilutions of the compound to derive applicable IC50 (concentration inhibition virus replication by 50%), IC90 (concentration inhibition virus replication by 90%), TC50 (concentration decreasing cell viability by 50%) and TI (therapeutic index: TC50/IC50) values.
Preparation of PMBC. Fresh Human PBMCs, Seronegative for HIV and HBV, were isolated from screened donors (Interstate Blood Bank, Inc. Memphis, Tenn.). Cells were pelleted/washed 2-3 times by low speed centrifugation and resuspensded in PBS to remove contaminating platelets. The leukophoresed blood was then diluted 1:1 with Dulbecco's Phosphate Buffered Saline (DPBS) and layered over 14 mL of Lymphocyte Separation Medium (LSM; Cellgro® by Mediatech, Inc.; density 1.078+/−0.002 g/ml; Cat. # 85-072-CL) in a 50 mL centrifuge tube and then centrifuged for 30 minutes at 600×g. Banded PBMCs were gently aspirated from the resulting interface and subsequently washed 2× with PBS by low speed centrifugation. After the final wash, cells were enumerated by trypan blue exclusion and re-suspended at 1×10^7 cells/mL in RPMI 1640 supplemented with 15% Fetal Bovine Serum (FBS), and 2 mM L-glutamine, 4 μg/mL Phytohemagglutinin (PHA-P, Sigma). The cells were allowed to incubate for 48-72 hours at 37° C. After incubation, PBMCs were centrifuged and re-suspended in RPMI 1640 with 15% FBS, 2 mM L-glutamine, 100 U/mL penicillin, 100 μg/mL streptomycin, 10 μg/mL gentamycin, and 20 U/mL recombinant human IL-2 (R&D Systems, Inc). […]
PMBC assay. […] Pooling (mixing) of mononuclear cells from more than one donor is used to minimize the variability observed between individual donors, which results from quantitative and qualitative differences in HIV infection and overall response to the PHA and IL-2 of primary lymphocyte populations. […]

For orientation: IC50 means the concentration that inhibits the measured activity by half. Broadly, the IC90 is the point of the concentration-response curve where the effect stands at 90%.

In brackets after ≈: the same amount, converted by molar mass. Where two headings read alike, the source gives them in different places.

With `CC(=O)O[C@@]12C[C@@H](C)[C@@]3(O)[C@@H](C=C(CO)C[C@]4(O)C(=O)C(C)=C[C@@H]34)[C@@H]1C2(C)C` [SA-101A, 12-deoxyphorbol 13-acetate], the TC50 in the series with Human PBMCs (HIV-1Ba-L assay plate), in the series on Human PBMCs (HIV-1IIIB assay plate) and in the series with Human PBMCs (SIVMac251 assay plate) was over 1.00 µg/mL each time. The Cytotoxicity entry in the series with Human PBMCs is recorded as “no cytotoxicity”. For the same molecule, the IC50 with HIV-1Ba-L (Human immunodeficiency virus 1, PBMC, read-out: IC50) was 0.05 µg/mL (≈ 0.128 µM). The IC90 in the series with HIV-1Ba-L (Human immunodeficiency virus 1, PBMC, read-out: IC90) is 0.39 µg/mL (≈ 0.999 µM).
Turning to `CC(=O)OC12CC(C)C3(O)C(C=C(COC(=O)CCC(=O)O)CC4(O)C(=O)C(C)=CC43)C1C2(C)C` (stereo not drawn) [SA-101B, Prostratin Succinate], the Cytotoxicity result with Human PBMCs (40% human AB serum) was “no cytotoxicity”. The TC50 in the series on Human PBMCs (HIV-1Ba-L assay plate, 40% Human AB serum) is over 1.00 µg/mL; with Human PBMCs (HIV-1IIIB assay plate, 40% Human AB serum), over 1.00 µg/mL; with Human PBMCs (SIVMac251 assay plate, 40% Human AB serum) it was over 1.00 µg/mL. In addition, the IC50 in the series with HIV-1Ba-L (40% Human AB serum) worked out at 0.0007 µg/mL. The IC90 with HIV-1Ba-L (40% Human AB serum) is over 1.00 µg/mL.

For the origin of these results see patent publication US8022103B2, “Ester prodrugs of prostratin and related phorbol compounds” (Salvia Sciences, Inc., priority 2005, dated 2011).
